Assays:
[1] = target: T1, human HPPD (Homo sapiens, UniProt P32754); assay: inhibition kinetics (supplement Method S2); type: biochemical
T1 construct: gene HPD

[2] = target: T2, AtHPPD (Arabidopsis thaliana, UniProt P93836); assay: HGD-coupled assay at […] nm, progress curves; type: biochemical
T2 construct: gene HPD; full-length, N-terminal His tag (pET15b), E. coli BL21 (DE3); Ni-NTA, ion exchange, size exclusion; homodimers in crystal
T2 sequence (P93836 1-445): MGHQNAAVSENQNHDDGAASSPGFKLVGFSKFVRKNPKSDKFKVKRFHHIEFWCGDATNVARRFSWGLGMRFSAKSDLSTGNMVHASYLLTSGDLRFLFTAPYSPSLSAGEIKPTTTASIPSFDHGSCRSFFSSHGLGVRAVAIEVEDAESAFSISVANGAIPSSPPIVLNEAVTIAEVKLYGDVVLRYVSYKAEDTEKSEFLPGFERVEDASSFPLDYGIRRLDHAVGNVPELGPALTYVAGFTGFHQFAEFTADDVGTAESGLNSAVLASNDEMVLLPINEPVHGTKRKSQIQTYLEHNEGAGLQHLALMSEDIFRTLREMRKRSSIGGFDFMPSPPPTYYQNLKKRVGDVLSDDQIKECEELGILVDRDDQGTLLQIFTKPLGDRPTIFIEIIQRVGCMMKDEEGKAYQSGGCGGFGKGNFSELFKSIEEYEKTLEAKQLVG

T1 sequence (P32754 2-393): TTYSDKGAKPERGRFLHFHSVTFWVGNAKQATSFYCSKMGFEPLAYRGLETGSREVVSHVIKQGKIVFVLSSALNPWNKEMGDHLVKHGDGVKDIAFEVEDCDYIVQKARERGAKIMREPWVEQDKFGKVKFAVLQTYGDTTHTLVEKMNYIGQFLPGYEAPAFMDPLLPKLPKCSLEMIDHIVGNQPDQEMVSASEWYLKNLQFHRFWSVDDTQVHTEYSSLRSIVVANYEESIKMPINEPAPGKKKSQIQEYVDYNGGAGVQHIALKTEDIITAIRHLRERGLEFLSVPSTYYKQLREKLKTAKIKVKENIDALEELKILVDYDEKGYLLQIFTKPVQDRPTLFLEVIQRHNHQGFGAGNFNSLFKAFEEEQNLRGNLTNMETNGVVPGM

Cc1cccc(C)c1-n1c(=O)c2cc(C(=O)C3C(=O)CCCC3=O)ccc2n(C)c1=O [Y13161]
Ki [1]: 179 ± 7.7 nM
Ki [2]: 24.2 ± 1.01 nM

From paper PMC6750108, “Crystal Structure of 4-Hydroxyphenylpyruvate Dioxygenase in Complex with Substrate Reveals a New Starting Point for Herbicide Discovery” (Research, 2019)
